# Entries after “also recorded” stand apart in the source; their conditions may differ.
# Assays:
# [1] = Stability study at −20 °C; assay type: physicochemical
# [2] = Stability study at different pH values; assay type: physicochemical; details: 2 days
Purity after 1 h ([1]; 1 h after purification by column chromatography) [%],Purity after 13 h ([1]; 13 h (one night) at −20 °C) [%],"Purity after 20 h ([1]; 20 h, −20 °C) [%]",Compound,Stability study at pH 5 (degradation) ([2]; pH 5 (acidic)),Stability study at pH 7 (degradation) ([2]; pH 7 (neutral)),Stability study at −20 °C (degradation) ([1]; storage at −20 °C)
68,30,8,"C[C@H](NP(=O)(Oc1ccccc1)O[C@H]1O[C@H](CO)[C@@H](O)[C@@H]1F)C(=O)OC1CCCCC1 (stereo partly drawn) [compound 14b, 2-deoxy-2-fluoro-D-arabinofuranose 1-O-phenyl-(cyclohexoxy-alaninyl)-phosphate]",,,
,,,"C[C@H](NP(=O)(Oc1ccccc1)O[C@H]1O[C@H](CO)[C@@H](O)C1(F)F)C(=O)OC1CCCCC1 (stereo partly drawn) [compound 25c, 2-deoxy-2,2-difluoro-D-ribofuranose 1-O-phenyl-(cyclohexoxy-alaninyl)-phosphate]",no degradation at all after 2 days; also recorded: No degradation observed over 2 days,no degradation at all after 2 days; also recorded: No degradation observed over 2 days,no degradation at all after 4 months; also recorded: No degradation observed after 4 months

# Reference: paper PMC7127338 (Bioorganic & Medicinal Chemistry Letters, 2013)
